The term pIC50 denotes the negative decadic logarithm of the IC50, by convention in mol/L.

Structures are written as SMILES. pIC50: −log10 of the molar value.

For this test, the target named is full length KDM5A enzyme (Homo sapiens (Human), UniProt P29375). Put plainly: KDM5 Enzyme Assay (KDM5A HTRF). The test is classed as biochemical. Conditions: 2 nM full length KDM5A, 100 nM H3K4Me3 peptide, 1 uM 2-OG, 30 min room temperature. On the procedure: Full length KDM5A enzyme was expressed and purified inhouse. Biotin-H3K4me3 peptide was purchased from New England Biolabs. HTRF reagents (containing Eu-labeled H3K4me1-2 antibody, and streptavidin-XL665) were purchased from Cis-Bio International. Plates were read on an Envision multi-label plate reader (Perkin Elmer).
The HTRF assay mixture contained 2 nM full length KDM5A enzyme, 100 nM H3K4Me3 peptide substrate, 1 uM 2-OG, 100 uM Fe^2+, 500 uM ascorbate. 50 mM HEPES pH 7.0 buffer, 0.01% Triton-X 100, 2 mM DTT, 0.25% DMSO at a final volume of 10 uL.
The plates were incubated at room temperature for 60 minutes and then read in the Envision plate reader.
Background: In TR-FRET formats the signal depends on donor and acceptor labels being close together.

full length KDM5A enzyme, sequence (P29375 whole entry): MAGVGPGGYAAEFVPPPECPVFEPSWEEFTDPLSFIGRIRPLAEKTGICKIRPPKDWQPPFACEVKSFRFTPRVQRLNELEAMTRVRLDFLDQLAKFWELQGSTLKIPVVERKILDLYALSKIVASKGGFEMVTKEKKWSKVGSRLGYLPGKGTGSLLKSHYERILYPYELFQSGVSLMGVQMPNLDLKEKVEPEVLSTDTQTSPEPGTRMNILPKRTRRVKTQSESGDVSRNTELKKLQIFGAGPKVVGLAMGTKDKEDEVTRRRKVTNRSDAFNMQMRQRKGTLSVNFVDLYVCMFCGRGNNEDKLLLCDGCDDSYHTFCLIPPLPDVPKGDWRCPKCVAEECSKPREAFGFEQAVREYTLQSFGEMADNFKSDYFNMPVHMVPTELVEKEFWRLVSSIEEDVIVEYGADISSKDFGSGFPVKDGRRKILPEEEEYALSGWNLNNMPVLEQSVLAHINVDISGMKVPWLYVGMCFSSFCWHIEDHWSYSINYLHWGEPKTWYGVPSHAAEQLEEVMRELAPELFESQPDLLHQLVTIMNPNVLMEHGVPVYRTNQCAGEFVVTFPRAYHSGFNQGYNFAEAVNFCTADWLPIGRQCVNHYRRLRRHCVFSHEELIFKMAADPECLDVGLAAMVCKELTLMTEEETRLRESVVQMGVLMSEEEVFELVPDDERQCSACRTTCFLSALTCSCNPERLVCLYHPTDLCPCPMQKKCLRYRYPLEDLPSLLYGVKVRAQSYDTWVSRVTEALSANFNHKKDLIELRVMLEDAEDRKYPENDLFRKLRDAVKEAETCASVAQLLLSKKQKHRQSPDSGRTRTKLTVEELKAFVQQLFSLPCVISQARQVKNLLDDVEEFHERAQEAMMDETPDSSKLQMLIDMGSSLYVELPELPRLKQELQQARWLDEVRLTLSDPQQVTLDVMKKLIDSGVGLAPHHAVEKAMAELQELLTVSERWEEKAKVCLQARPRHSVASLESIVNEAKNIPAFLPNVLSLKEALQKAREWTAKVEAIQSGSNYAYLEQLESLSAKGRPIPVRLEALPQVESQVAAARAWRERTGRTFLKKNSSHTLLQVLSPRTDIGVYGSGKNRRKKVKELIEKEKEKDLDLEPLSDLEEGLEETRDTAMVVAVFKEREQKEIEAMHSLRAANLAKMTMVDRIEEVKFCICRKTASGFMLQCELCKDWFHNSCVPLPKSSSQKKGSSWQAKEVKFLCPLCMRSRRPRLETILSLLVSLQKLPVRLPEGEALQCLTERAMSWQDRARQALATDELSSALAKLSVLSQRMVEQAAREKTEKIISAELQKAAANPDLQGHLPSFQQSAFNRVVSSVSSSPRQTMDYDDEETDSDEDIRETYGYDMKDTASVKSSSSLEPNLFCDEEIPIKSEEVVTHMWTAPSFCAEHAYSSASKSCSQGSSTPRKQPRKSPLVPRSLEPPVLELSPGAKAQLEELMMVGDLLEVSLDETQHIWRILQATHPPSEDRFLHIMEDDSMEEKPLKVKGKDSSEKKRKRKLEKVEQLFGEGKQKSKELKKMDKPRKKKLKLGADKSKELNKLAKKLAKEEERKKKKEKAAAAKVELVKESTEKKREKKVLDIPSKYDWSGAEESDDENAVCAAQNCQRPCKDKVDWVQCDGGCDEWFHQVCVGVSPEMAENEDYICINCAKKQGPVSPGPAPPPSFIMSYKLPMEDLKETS

`COc1cccc(-c2cc(C)nc(C3CCN(C(=O)c4cc(C(C)C)n[nH]4)C3)c2)c1` (stereo not drawn) [Example 62]: the pIC50 was 9.66. As to `COc1ccccc1C(=O)NC1CCN(C(=O)c2cc(C(C)C)n[nH]2)C1` (stereo not drawn) [Example 158], the pIC50 was 10.14. Next, `CC(C)c1cc(C(=O)N2CCC(NC(=O)c3ccccc3Cl)C2)[nH]n1` (stereo not drawn) [Example 150]: 10.01; `Cc1cc(-c2cn(C)nc2C)cc(C2CCN(C(=O)c3cc(C(C)C)n[nH]3)C2)n1` (stereo not drawn) [Example 88]: 9.36. On to `Cc1cc(-c2cccc(Cl)c2)cc(C2CCN(C(=O)c3cc(C(C)C)n[nH]3)C2)n1` (stereo not drawn) [Example 84], for which the negative logarithm of the IC50 (pIC50) was 9.40. Consider `CCN(C(=O)c1ccccc1)C1CCN(C(=O)c2cc(C(C)C)n[nH]2)C1` (stereo not drawn) [Example 148], for which the pIC50 is 7.92. Next, `CC(C)c1cc(C(=O)N2CCC(n3cc(Br)c(C#N)n3)C2)[nH]n1` (stereo not drawn) [Example 240]: 8.68; `CC(C)c1cc(C(=O)N2CCC(n3ncc4c(F)cc(Br)cc43)C2)[nH]n1` (stereo not drawn) [Example 245]: 9.04; `CC(C)c1cc(C(=O)N2CCC(n3ccccc3=O)C2)[nH]n1` (stereo not drawn) [Example 39, 1-(1-(3-Isopropyl-1H-pyrazole-5-carbonyl)pyrrolidin-3-yl)pyridin-2(1H)-one]: 8.92. On to `Cc1cc(NS(C)(=O)=O)cc(C2CCN(C(=O)c3cc(C(C)C)n[nH]3)C2)n1` (stereo not drawn) [Example 56], for which the pIC50 is 7.80. Next, `Cc1nn(C2CCN(C(=O)c3cc(C(C)C)n[nH]3)C2)cc1-c1ccccc1` (stereo not drawn) [Example 236]: 9.49. The compound `COCC(C)c1cc(C(=O)N2CCC(NC(=O)C3CC3)C2)[nH]n1` (stereo not drawn) [Example 25, N-(1-(3-(1-methoxypropan-2-yl)-1H-pyrazole-5-carbonyl)pyrrolidin-3-yl) cyclopropanecarboxamide] gave a negative logarithm of the IC50 (pIC50) of 9.03. `CC(C)c1cc(C(=O)N2CCC(NC(=O)c3ccncc3)C2)[nH]n1` (stereo not drawn) [Example 149] gave a pIC50 of 8.60. For `CNC(=O)c1cc(C)nc(C2CCN(C(=O)c3cc(C(C)C)n[nH]3)C2)c1` (stereo not drawn) [Example 53], the pIC50 is 8.38. Next, `CC(C)c1cc(C(=O)N2CCC(NC(=O)c3ccccc3OC(F)(F)F)C2)[nH]n1` (stereo not drawn) [Example 142]: 8.82. With `CC(=O)Nc1cc(C)nc(C2CCN(C(=O)c3cc(C(C)C)n[nH]3)C2)c1` (stereo not drawn) [Example 54], the pIC50 is 8.77. Next, `CC(c1cc(C(=O)N2CCC(NC(=O)C3CC3)C2)[nH]n1)C(F)(F)F` (stereo not drawn) [Example 24, N-(1-(3-(1,1,1-trifluoropropan-2-yl)-1H-pyrazole-5-carbonyl)pyrrolidin-3-yl) cyclopropanecarboxamide]: 8.92; `CC(C)c1cc(C(=O)N2CCC(NC(=O)c3cccc(Cl)c3)C2)[nH]n1` (stereo not drawn) [Example 110]: 9.60; `CC(C)c1cc(C(=O)N2CCC(NC(=O)C3(Oc4ccccc4)CC3)C2)[nH]n1` (stereo not drawn) [Example 195]: 8.46. As to `CC(C)c1cc(C(=O)N2CCC(NC(=O)c3ncccc3F)C2)n[nH]1` (stereo not drawn) [Example 200], the pIC50 was 9.60. `CC(C)c1cc(C(=O)N2CCC(NC(=O)c3ccc(Cl)cc3)C2)[nH]n1` (stereo not drawn) [Example 111]: the pIC50 was 9.12.

Turning to `Cc1ccc(C2CCN(C(=O)c3cc(C(C)C)n[nH]3)C2)nc1` (stereo not drawn) [Example 105], the pIC50 was 8.64. Next, `CC(C)CC(=O)NC1CCN(C(=O)c2cc(C(C)C)n[nH]2)C1` (stereo not drawn) [Example 125]: 9.49; `CCOc1ccccc1C(=O)NC1CCN(C(=O)c2cc(C(C)C)n[nH]2)C1` (stereo not drawn) [Example 129]: 10.33. Take `CC(C)c1cc(C(=O)N2CCC(NC(=O)c3ccc4[nH]ccc4c3)C2)[nH]n1` (stereo not drawn) [Example 121]: the pIC50 is 10.18. As to `CC(c1ccccc1)c1cc(C(=O)N2CCC(NC(=O)C3CC3)C2)[nH]n1` (stereo not drawn) [Example 21, N-(1-(3-(1-phenylethyl)-1H-pyrazole-5-carbonyl)pyrrolidin-3-yl)cyclopropanecarboxamide], the pIC50 is 9.19. Take `CC(C)c1cc(C(=O)N2CCC(NC(=O)C(C)(C)C)C2)[nH]n1` (stereo not drawn) [Example 168]: the pIC50 was 9.70. Next, `COCC1(C(=O)NC2CCN(C(=O)c3cc(C(C)C)n[nH]3)C2)CC1` (stereo not drawn) [Example 192]: 9.24.

Regarding `CC(C)c1cc(C(=O)N2CCC(NC(=O)C3(c4cccnc4)CC3)C2)n[nH]1` (stereo not drawn) [Example 184], the pIC50 is 8.92. Next, `CC(C)c1cc(C(=O)N2CCC(NC(=O)COc3ccccc3)C2)[nH]n1` (stereo not drawn) [Example 169]: 8.51; `CC(C)c1cc(C(=O)N2CCC(NC(=O)c3cnccn3)C2)n[nH]1` (stereo not drawn) [Example 199]: 8.96. Next, `CCC(C)c1cc(C(=O)N2CC[C@@H](NC(=O)[C@H]3C[C@H]3F)C2)[nH]n1` (stereo partly drawn) [Example 189]: 10.42; `CCC(C)c1cc(C(=O)N2CC[C@@H](NC(=O)[C@@H]3C[C@@H]3F)C2)[nH]n1` (stereo partly drawn) [Example 190]: 10.43; `CCNC(=O)C1CCN(C(=O)c2cc(C(C)C)n[nH]2)C1` (stereo not drawn) [Example 188]: 7.66. `Cc1cc(NCc2ccccc2)cc(C2CCN(C(=O)c3cc(C(C)C)n[nH]3)C2)n1` (stereo not drawn) [Example 11, (3-(4-(Benzylamino)-6-methylpyridin-2-yl)pyrrolidin-1-yl)(3-isopropyl-1H-pyrazol-5-yl)methanone] showed a negative logarithm of the IC50 (pIC50) of 7.96. `Cc1cc(-c2cnn(C(F)F)c2)cc(C2CCN(C(=O)c3cc(C(C)C)n[nH]3)C2)n1` (stereo not drawn) [Example 76] showed a pIC50 of 8.77. The compound `CC(F)c1cc(C(=O)N2CCC(NC(=O)C3CC3)C2)[nH]n1` (stereo not drawn) [Example 17, N-(1-(3-(1-fluoroethyl)-1H-pyrazole-5-carbonyl)pyrrolidin-3-yl)cyclopropanecarboxamide] gave a pIC50 of 7.60. Next, `CCc1cc(C(=O)N2CCC(c3cc(-c4cnn(C)c4)cc(C)n3)C2)[nH]n1` (stereo not drawn) [Example 45]: 9.04; `COC1(C(=O)NC2CCN(C(=O)c3cc(C(C)C)n[nH]3)C2)CC1` (stereo not drawn) [Example 174]: 9.68. Next, `CC(C)c1cc(C(=O)N2CCC(C(=O)Nc3ccccc3)C2)[nH]n1` (stereo not drawn) [Example 187]: 8.19; `CC(C)Oc1cc(C(=O)N2CCC(NC(=O)C3CC3)C2)[nH]n1` (stereo not drawn) [Example 26, N-(1-(3-isopropoxy-1H-pyrazole-5-carbonyl)pyrrolidin-3-yl)cyclopropanecarboxamide]: 8.08; `CC(C)c1cc(C(=O)N2CCC(NC(=O)C3CCCO3)C2)[nH]n1` (stereo not drawn) [Example 161]: 9.42. As for `CC(C)c1cc(C(=O)N2CCC(NC(=O)c3ccccc3Oc3ccccc3)C2)[nH]n1` (stereo not drawn) [Example 164], the pIC50 is 9.15.

`CC(C)c1cc(C(=O)N2CCC(NC(=O)Oc3ccccc3)C2)[nH]n1` (stereo not drawn) [Example 116] had a pIC50 of 8.68.

In the case of `CC(C)c1cc(C(=O)N2CCC(NC(=O)/C=C/c3ccccc3)C2)[nH]n1` (stereo not drawn) [Example 126], the pIC50 was 9.05. `Cc1cc(NS(=O)(=O)c2ccccc2)cc(C2CCN(C(=O)c3cc(C(C)C)n[nH]3)C2)n1` (stereo not drawn) [Example 57] gave a pIC50 of 7.77. Consider `CC(C)c1cc(C(=O)N2CCC(NC(=O)C3COC3)C2)[nH]n1` (stereo not drawn) [Example 179], for which the pIC50 was 9.62.

In the case of `Cn1cnc(C(=O)N2CCC(NC(=O)C3CC3)C2)c1` (stereo not drawn) [Example 204], the pIC50 is 8.66. Take `COC(=O)NC1CCN(C(=O)c2cc(C(C)C)n[nH]2)C1` (stereo not drawn) [Example 115]: the pIC50 is 9.23. Next, `Cc1cc(-c2cnn(C)c2)nc(C2CCN(C(=O)c3cc(C(C)C)n[nH]3)C2)n1` (stereo not drawn) [Example 102]: 9.12.

`CC(C)c1cc(C(=O)N2CCC(NC(=O)C3(c4ccncc4)CC3)C2)[nH]n1` (stereo not drawn) [Example 191] showed a pIC50 of 8.70. Next, `Cc1cc(-c2cnn(CCC#N)c2)cc(C2CCN(C(=O)c3cc(C(C)C)n[nH]3)C2)n1` (stereo not drawn) [Example 98]: 9.49; `CC(C)c1cc(C(=O)N2CCC(NC(=O)C3CCCCC3)C2)[nH]n1` (stereo not drawn) [Example 145]: 8.72. For the compound `Cc1cc(-c2cnn(-c3ccccc3)c2)cc(C2CCN(C(=O)c3cc(C(C)C)n[nH]3)C2)n1` (stereo not drawn) [Example 92], the pIC50 is 9.52. `CC(C)c1cc(C(=O)N2CCC(NC(=O)C3CC3C)C2)[nH]n1` (stereo not drawn) [Example 130] had a pIC50 of 9.85.

For the compound `CC(C)c1cc(C(=O)N2CCC(c3ccc(-c4ccccc4)cn3)C2)[nH]n1` (stereo not drawn) [Example 106], the pIC50 is 8.85.

Compound `CC(C)c1cc(C(=O)N2CCC(NC(=O)c3ncccn3)C2)n[nH]1` (stereo not drawn) [Example 197] gave a pIC50 of 9.51. The compound `COc1cccc(F)c1C(=O)NC1CCN(C(=O)c2cc(C(C)C)[nH]n2)C1` (stereo not drawn) [Example 198] had a pIC50 of 8.92. Next, `CC(C)c1cc(C(=O)N2CC[C@H](NC(=O)[C@@H]3C[C@@H]3F)C2)[nH]n1` [Example 229]: 9.96; `Cc1cc(-c2ccn(C)n2)cc(C2CCN(C(=O)c3cc(C(C)C)n[nH]3)C2)n1` (stereo not drawn) [Example 93]: 9.10. Next, `CC(C)c1cc(C(=O)N2CCC(N(C)C(=O)c3ccccc3)C2)[nH]n1` (stereo not drawn) [Example 147]: 8.05.

With `CC(C)c1cc(C(=O)N2CCC(NC(=O)C(C)(C)C(F)(F)F)C2)[nH]n1` (stereo not drawn) [Example 173], the pIC50 is 8.80.

For the compound `CC(C)c1cc(C(=O)N2CCC(NC(=O)C3(c4ccccc4)CC3)C2)[nH]n1` (stereo not drawn) [Example 138], the negative-log IC50 (pIC50) was 9.59. Next, `CC(C)c1cc(C(=O)N2CCC(c3cc(-c4cnn(C)c4)cc(N)n3)C2)[nH]n1` (stereo not drawn) [Example 144]: 9.89; `CC(C)c1cc(C(=O)N2CCC(NC(=O)c3cnn(C)c3)C2)[nH]n1` (stereo not drawn) [Example 113]: 9.05. As to `O=C(NC1CCN(C(=O)c2cc(C3CC3)n[nH]2)C1)C1CC1` (stereo not drawn) [Example 208], the pIC50 was 9.72.

These data come from patent US10022354B2, “Pyrrolidine amide compounds as histone demethylase inhibitors” (GENENTECH, INC., priority 2014, dated 2018).
